Measurements published in ChEMBL document CHEMBL4665648, “Potent and selective inhibitors of receptor-interacting protein kinase 1 that lack an aromatic back pocket group” (Bioorg Med Chem Lett, 2019).

How the values were obtained:
[1] = target: PAS domain-containing serine/threonine-protein kinase (Homo sapiens) (UniProt Q96RG2); experiment: Inhibition of recombinant human GST-tagged PASK (879 to 1323 residues) expressed in baculovirus expression system using Ser/Thr 07 as substrate at 10 uM incubated for 60 mins by Z'-lyte assay relative to control
[2] = target: Serine/threonine-protein kinase PAK 3 (Homo sapiens) (UniProt O75914); experiment: Inhibition of recombinant human His-tagged full length PAK3 expressed in baculovirus expression system using Ser/Thr 20 as substrate at 10 uM incubated for 60 mins by Z'-lyte assay relative to control
[3] = target: SRSF protein kinase 1 (Homo sapiens) (UniProt Q96SB4); experiment: Inhibition of recombinant human His-tagged full length SRPK1 expressed in baculovirus expression system using Ser/Thr 18 as substrate at 10 uM incubated for 60 mins by Z'-Lyte assay relative to control
[4] = target: Ribosomal protein S6 kinase alpha-3 (Homo sapiens) (UniProt P51812); experiment: Inhibition of recombinant human His-tagged full length RSK2 expressed in baculovirus expression system using Ser/Thr 06 as substrate at 10 uM incubated for 60 mins by Z'-Lyte assay relative to control
[5] = target: Fibroblast growth factor receptor 3 (Homo sapiens) (UniProt P22607); experiment: Inhibition of recombinant human His-tagged FGFR3 (399 to 806 residues) expressed in baculovirus expression system using Tyr 04 as substrate at 10 uM incubated for 60 mins by Z'-Lyte assay relative to control
[6] = target: Death-associated protein kinase 3 (Homo sapiens) (UniProt O43293); experiment: Inhibition of recombinant human GST-tagged full length ZIPK expressed in baculovirus expression system using Ser/Thr 13 as substrate at 10 uM incubated for 60 mins by Z'-Lyte assay relative to control
[7] = target: Casein kinase II subunit alpha (Homo sapiens) (UniProt P68400); experiment: Inhibition of recombinant human His-tagged full length CK2alpha1 expressed in baculovirus expression system using Ser/Thr 1 as substrate at 10 uM incubated for 60 mins by Z'-Lyte assay relative to control
[8] = target: RAC-beta serine/threonine-protein kinase (Homo sapiens) (UniProt P31751); experiment: Inhibition of recombinant human His-tagged full length AKT2 expressed in baculovirus expression system using Ser/Thr 06 as substrate at 10 uM incubated for 60 mins by Z'-Lyte assay relative to control
[9] = target: Serine/threonine-protein kinase 24 (Homo sapiens) (UniProt Q9Y6E0); experiment: Inhibition of recombinant human GST-tagged full length MST3 expressed in baculovirus expression system using Ser/Thr 07 as substrate at 10 uM incubated for 60 mins by Z'-lyte assay relative to control
[10] = target: Proto-oncogene tyrosine-protein kinase ROS (Homo sapiens) (UniProt P08922); experiment: Inhibition of recombinant human GST-tagged full length ROS1 (1883 to 2347 residues) expressed in baculovirus expression system using Tyr 01 as substrate at 10 uM incubated for 60 mins by Z'-Lyte assay relative to control
[11] = target: CDK9/cyclin T1 (Homo sapiens) (UniProt O60563+P50750); experiment: Inhibition of recombinant human His-tagged full length CDK9/Cyclin T1 expressed in baculovirus expression system using CDK7/9tide as substrate at 10 uM incubated for 60 mins by Adapta assay relative to control
[12] = target: MAP kinase-activated protein kinase 5 (Homo sapiens) (UniProt Q8IW41); experiment: Inhibition of recombinant human His-tagged full length PRAK expressed in baculovirus expression system using Ser/Thr 04 as substrate at 10 uM incubated for 60 mins by Z'-lyte assay relative to control
[13] = target: Serine/threonine-protein kinase B-raf (Homo sapiens) (UniProt P15056); experiment: Inhibition of recombinant human GST-tagged full length BRAF expressed in baculovirus expression system using Ser/Thr 03 as substrate at 10 uM incubated for 60 mins by Z'-Lyte assay relative to control
[14] = target: Megakaryocyte-associated tyrosine-protein kinase (Homo sapiens) (UniProt P42679); experiment: Inhibition of recombinant human His-tagged full length Hyl expressed in Escherichia coli expression system using Tyr 01 as substrate at 10 uM incubated for 60 mins by Z'-Lyte assay relative to control
[15] = target: Serine/threonine-protein kinase 26 (Homo sapiens) (UniProt Q9P289); experiment: Inhibition of recombinant human GST-tagged full length MST4 expressed in baculovirus expression system using Ser/Thr 07 as substrate at 10 uM incubated for 60 mins by Z'-lyte assay relative to control
[16] = target: Casein kinase I isoform epsilon (Homo sapiens) (UniProt P49674); experiment: Inhibition of recombinant human His-tagged full length CK1epsilon expressed in baculovirus expression system using Ser/Thr 11 as substrate at 10 uM incubated for 60 mins by Z'-Lyte assay relative to control
[17] = target: Receptor tyrosine-protein kinase erbB-4 (Homo sapiens) (UniProt Q15303); experiment: Inhibition of recombinant human N-terminal GST-tagged ERBB4 (708 to 993 residues) expressed in baculovirus expression system using Tyr 01 as substrate at 10 uM incubated for 60 mins by Z'-Lyte assay relative to control
[18] = target: Serine/threonine-protein kinase PLK3 (Homo sapiens) (UniProt Q9H4B4); experiment: Inhibition of recombinant human GST-tagged PLK3 (58 to 340 residues) expressed in baculovirus expression system using Ser/Thr 16 as substrate at 10 uM incubated for 60 mins by Z'-lyte assay relative to control
[19] = target: Dual specificity tyrosine-phosphorylation-regulated kinase 4 (Homo sapiens) (UniProt Q9NR20); experiment: Inhibition of recombinant human GST-tagged full length DYRK4 expressed in baculovirus expression system using Ser/Thr 9 as substrate at 10 uM incubated for 60 mins by Z'-Lyte assay relative to control
[20] = target: Serine/threonine-protein kinase TBK1 (Homo sapiens) (UniProt Q9UHD2); experiment: Inhibition of recombinant human GST-tagged full length TBK1 expressed in insect expression system using Ser/Thr 05 as substrate at 10 uM incubated for 60 mins by Z'-Lyte assay relative to control
[21] = target: Insulin receptor-related protein (Homo sapiens) (UniProt P14616); experiment: Inhibition of recombinant human GST-tagged IRR (944 to 1297 residues) expressed in baculovirus expression system using Tyr 04 as substrate at 10 uM incubated for 60 mins by Z'-lyte assay relative to control
[22] = target: Protein kinase C theta type (Homo sapiens) (UniProt Q04759); experiment: Inhibition of recombinant human His-tagged full length PKCtheta expressed in baculovirus expression system using Ser/Thr 07 as substrate at 10 uM incubated for 60 mins by Z'-lyte assay relative to control
[23] = target: MAP kinase-interacting serine/threonine-protein kinase 2 (Homo sapiens) (UniProt Q9HBH9); experiment: Inhibition of tracer 236 binding to recombinant human N-terminal GST-tagged full length MKNK2 expressed in baculovirus expression system at 10 uM incubated for 60 mins by Lanthascreen assay relative to control
[24] = target: Calcium/calmodulin-dependent protein kinase type II subunit alpha (Homo sapiens) (UniProt Q9UQM7); experiment: Inhibition of recombinant human His-tagged full length CAMK2alpha expressed in baculovirus expression system using Ser/Thr 04 as substrate at 10 uM incubated for 60 mins by Z'-Lyte assay relative to control

Sequence of Casein kinase II subunit alpha (Homo sapiens) (P68400 whole entry, looked up): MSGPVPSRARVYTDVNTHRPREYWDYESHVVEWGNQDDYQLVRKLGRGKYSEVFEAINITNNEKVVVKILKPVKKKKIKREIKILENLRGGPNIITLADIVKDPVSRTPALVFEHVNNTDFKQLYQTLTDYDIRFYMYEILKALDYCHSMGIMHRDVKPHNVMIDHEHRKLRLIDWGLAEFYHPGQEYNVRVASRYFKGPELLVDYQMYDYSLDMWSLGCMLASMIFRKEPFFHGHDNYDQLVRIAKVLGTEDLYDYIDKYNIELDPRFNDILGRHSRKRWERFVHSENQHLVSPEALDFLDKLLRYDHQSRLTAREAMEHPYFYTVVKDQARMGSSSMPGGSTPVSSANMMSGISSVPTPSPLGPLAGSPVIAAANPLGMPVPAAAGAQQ
Sequence of MAP kinase-activated protein kinase 5 (Homo sapiens) (Q8IW41 whole entry): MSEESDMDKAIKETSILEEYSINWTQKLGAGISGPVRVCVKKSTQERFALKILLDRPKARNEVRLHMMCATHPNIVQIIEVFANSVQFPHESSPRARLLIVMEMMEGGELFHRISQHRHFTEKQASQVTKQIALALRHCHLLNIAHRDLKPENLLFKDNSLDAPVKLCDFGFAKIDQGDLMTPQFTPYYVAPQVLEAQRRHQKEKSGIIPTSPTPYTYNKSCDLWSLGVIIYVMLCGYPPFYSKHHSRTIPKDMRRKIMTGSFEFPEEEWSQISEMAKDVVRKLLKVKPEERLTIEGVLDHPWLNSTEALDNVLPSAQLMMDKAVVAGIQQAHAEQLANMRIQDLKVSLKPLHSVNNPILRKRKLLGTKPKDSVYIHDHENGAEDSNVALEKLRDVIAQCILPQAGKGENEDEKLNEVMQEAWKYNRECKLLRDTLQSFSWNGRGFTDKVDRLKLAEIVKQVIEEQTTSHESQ
Sequence of Serine/threonine-protein kinase 24 (Homo sapiens) (Q9Y6E0 whole entry, looked up, the tested form may be a part): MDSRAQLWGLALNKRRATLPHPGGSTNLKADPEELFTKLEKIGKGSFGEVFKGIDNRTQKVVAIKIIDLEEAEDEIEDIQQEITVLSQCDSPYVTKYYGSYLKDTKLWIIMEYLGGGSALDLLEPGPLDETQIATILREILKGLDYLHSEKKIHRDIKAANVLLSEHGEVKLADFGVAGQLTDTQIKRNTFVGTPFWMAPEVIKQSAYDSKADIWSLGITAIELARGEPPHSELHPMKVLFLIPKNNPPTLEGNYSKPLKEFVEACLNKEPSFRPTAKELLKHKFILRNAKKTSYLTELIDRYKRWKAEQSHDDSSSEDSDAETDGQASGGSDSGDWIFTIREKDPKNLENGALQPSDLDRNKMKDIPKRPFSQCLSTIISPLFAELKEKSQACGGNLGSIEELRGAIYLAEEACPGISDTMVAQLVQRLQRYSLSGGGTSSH
Sequence of Insulin receptor-related protein (Homo sapiens) (P14616 27-742 limits assumed): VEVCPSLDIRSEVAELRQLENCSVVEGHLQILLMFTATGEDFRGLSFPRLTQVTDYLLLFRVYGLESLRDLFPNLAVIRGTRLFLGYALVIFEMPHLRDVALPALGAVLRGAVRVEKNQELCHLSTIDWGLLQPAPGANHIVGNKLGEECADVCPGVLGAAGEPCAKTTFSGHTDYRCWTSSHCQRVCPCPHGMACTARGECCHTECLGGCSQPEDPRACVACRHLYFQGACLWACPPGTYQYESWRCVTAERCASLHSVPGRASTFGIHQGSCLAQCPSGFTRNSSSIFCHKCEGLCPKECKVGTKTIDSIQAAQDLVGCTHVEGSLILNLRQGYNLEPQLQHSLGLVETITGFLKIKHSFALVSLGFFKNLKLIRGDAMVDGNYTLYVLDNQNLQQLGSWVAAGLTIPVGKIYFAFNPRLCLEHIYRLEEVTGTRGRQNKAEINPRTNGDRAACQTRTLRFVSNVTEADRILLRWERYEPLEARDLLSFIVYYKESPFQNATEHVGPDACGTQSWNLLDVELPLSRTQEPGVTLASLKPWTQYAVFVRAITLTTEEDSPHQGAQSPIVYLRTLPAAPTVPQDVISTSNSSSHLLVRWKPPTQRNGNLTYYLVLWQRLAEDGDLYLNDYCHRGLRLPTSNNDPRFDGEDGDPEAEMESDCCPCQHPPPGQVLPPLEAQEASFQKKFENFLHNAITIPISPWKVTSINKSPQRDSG
Sequence of Insulin receptor-related protein (Homo sapiens) (P14616 747-1297 limits assumed): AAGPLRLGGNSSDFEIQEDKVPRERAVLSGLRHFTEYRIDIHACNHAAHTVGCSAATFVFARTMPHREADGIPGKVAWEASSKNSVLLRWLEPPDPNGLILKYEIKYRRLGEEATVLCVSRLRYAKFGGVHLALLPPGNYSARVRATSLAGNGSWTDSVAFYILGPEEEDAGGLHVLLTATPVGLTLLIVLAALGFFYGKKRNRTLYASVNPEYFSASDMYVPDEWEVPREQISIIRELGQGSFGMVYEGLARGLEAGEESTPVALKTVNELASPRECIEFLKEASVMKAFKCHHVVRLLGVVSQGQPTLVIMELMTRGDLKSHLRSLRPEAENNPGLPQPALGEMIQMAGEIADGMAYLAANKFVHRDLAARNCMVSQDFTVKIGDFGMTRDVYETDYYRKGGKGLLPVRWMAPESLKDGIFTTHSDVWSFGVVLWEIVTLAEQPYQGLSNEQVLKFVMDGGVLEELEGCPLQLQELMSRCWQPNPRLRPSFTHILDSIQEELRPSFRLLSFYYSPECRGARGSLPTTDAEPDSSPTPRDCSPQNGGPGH
Sequence of MAP kinase-interacting serine/threonine-protein kinase 2 (Homo sapiens) (Q9HBH9 whole entry, looked up): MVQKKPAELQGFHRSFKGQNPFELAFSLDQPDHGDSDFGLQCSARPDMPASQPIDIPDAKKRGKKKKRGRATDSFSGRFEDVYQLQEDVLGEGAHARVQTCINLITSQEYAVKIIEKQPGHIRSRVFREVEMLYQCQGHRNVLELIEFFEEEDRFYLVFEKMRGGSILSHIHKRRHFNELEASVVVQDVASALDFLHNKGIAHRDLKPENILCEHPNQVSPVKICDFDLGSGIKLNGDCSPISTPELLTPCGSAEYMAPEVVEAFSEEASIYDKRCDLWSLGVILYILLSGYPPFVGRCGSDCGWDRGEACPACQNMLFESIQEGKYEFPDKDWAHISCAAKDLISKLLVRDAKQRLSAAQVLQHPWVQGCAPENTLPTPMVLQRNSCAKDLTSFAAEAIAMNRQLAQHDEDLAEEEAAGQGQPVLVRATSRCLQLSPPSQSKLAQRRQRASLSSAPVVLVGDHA
Sequence of Serine/threonine-protein kinase PAK 3 (Homo sapiens) (O75914 whole entry, looked up): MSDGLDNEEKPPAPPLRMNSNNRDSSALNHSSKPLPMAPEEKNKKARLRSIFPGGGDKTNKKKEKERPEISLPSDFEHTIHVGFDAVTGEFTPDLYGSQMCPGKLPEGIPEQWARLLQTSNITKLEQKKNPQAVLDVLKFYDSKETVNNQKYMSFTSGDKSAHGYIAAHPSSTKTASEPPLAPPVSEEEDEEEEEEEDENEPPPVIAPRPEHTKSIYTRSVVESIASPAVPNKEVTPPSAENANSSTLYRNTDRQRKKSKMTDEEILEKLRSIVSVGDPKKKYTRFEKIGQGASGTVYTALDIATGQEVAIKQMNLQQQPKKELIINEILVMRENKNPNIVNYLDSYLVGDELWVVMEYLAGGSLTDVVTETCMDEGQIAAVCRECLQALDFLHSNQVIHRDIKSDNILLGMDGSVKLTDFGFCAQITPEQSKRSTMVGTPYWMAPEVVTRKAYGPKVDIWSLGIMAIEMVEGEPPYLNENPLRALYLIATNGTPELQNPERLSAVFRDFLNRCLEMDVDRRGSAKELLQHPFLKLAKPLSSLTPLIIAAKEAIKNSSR
Sequence of RAC-beta serine/threonine-protein kinase (Homo sapiens) (P31751 whole entry): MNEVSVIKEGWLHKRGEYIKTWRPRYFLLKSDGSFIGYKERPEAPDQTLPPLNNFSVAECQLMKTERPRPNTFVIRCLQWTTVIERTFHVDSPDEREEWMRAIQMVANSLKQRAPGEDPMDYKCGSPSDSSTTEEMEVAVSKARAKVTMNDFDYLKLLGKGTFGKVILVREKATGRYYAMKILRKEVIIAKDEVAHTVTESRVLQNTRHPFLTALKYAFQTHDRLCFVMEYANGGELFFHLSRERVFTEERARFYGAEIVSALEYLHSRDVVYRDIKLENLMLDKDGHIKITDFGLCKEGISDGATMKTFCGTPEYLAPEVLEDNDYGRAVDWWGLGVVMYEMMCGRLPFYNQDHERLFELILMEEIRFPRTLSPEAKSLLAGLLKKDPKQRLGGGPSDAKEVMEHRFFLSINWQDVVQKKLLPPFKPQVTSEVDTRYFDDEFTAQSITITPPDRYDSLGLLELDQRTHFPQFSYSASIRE
Sequence of Death-associated protein kinase 3 (Homo sapiens) (O43293 whole entry, looked up): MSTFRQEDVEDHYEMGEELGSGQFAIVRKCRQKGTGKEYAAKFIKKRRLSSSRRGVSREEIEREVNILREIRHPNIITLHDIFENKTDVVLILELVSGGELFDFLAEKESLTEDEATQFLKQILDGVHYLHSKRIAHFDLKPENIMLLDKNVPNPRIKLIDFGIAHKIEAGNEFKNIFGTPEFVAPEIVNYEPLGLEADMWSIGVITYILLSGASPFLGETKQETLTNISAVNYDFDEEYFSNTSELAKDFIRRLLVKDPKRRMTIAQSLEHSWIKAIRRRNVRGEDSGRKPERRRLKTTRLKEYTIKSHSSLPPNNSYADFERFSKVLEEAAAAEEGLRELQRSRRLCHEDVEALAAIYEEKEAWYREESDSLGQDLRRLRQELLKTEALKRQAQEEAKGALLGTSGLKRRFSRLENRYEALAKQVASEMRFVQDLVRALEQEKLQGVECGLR
Sequence of Casein kinase I isoform epsilon (Homo sapiens) (P49674 whole entry, looked up, the tested form may be a part, canonical isoform): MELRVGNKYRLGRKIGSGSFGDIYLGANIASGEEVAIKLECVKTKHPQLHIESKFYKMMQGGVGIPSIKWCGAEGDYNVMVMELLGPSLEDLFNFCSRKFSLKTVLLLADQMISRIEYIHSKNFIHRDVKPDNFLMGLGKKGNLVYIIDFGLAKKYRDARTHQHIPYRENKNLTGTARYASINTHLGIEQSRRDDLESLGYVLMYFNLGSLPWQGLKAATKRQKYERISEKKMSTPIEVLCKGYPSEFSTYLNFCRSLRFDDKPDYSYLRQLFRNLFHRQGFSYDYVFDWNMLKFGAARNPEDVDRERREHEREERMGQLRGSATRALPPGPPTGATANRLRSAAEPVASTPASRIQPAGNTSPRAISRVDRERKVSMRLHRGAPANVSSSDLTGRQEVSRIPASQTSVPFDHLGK

Compound `CN1C(=O)[C@@H](NC(=O)c2n[nH]c3ncc(C(F)(F)C(F)(F)F)cc23)COc2ccccc21` has an inhibition [1] of 2%, an inhibition [2] of 8% and an inhibition [3] of -2.5%. The inhibition [4] was 2%, the inhibition [5] was 0.5% and the inhibition [6] was 7%. For the same compound, the inhibition [7] was 4.5%, the inhibition [8] was 7.5% and the inhibition [9] was 6%. For the same compound, the inhibition [10] was -4%, the inhibition [11] was 6% and the inhibition [12] was 5%. It also gave an inhibition [13] of 26.5%, an inhibition [14] of 3.5% and an inhibition [15] of 8.5%. It also gave an inhibition [16] of 5%, an inhibition [17] of 9% and an inhibition [18] of 7%. It also gave an inhibition [19] of 4.5%, an inhibition [20] of 1.5% and an inhibition [21] of 6.5%. The inhibition [22] was 2%, the inhibition [23] was 1% and the inhibition [24] was 1%.
